Here are results for one compound from patent publication US11147765B1, “Instantly dissolving buccal films” (King Abdulaziz University, priority 2020, dated 2021).

Molecules are shown by their SMILES. Structures can show the parent of a compound that is named as a salt.

The conditions of data set [1]: reported [26]; cited from earlier work.
Data set [2] is described as follows: Dissolution screening of DPX and its physical mixtures with organic acids and cyclodextrins. The data set is classed as physicochemical. The settings on record: phosphate buffer pH 6.8, 37±0.5° C., in absence of excipients. How it is done: Various organic acids (CA, MA, and TA) and cyclodextrins β3-CD and HP-β-CD) were assessed as acidifiers and hydrophilic solubilizers to enhance the dissolution of DPX. Equivalent amounts of DPX and each of the studied excipients were thoroughly mixed for 5 min. The dissolution behavior of specified quantity of each mixture equivalent to 30 mg DPX was done in 900 mL phosphate buffer (pH 6.8) using USP Dissolution Tester, apparatus II (DT 720, Erweka, Germany) operating at 50 rpm at 37±0.5° C.. Aliquot samples were withdrawn after 2 and 15 minutes and replaced with equal volume of fresh buffer. Samples were filtered through a 0.22 μm Millipore filter, and the concentration of DPX was quantified spectrophotometrically at 292 nm (UV-2600 PC; Shimadzu, Kyoto, Japan). The dissolution study was done in triplicate.

As to `CN(C)[C@@H](CCOc1cccc2ccccc12)c1ccccc1` [DPX, Dapoxetine hydrochloride], the “solubility in phosphate buffer pH 6.8” value in data set [1] is on record as 0.26 μg·mL^−1. For the same compound, in data set [2], the “percent dissolved after 2 minutes” value was determined as 2.13±0.09% and the “percent dissolved after 15 minutes” value is 2.89±0.06%.
